Data from PMC4336642 (Journal of neuroimmune pharmacology : the official journal …, 2015).
In brackets after ≈: the same amount, converted by molar mass.

Key:
[1] = system: BV-2 cells; test: MTT cytotoxicity assay, microglia model; assay type: cell-based, murine; settings: Mus musculus, BV-2, 24 h, read-out: IC50, Microglia
[2] = system: HepG2 cells
[3] = system: SH-SY5Y cells; test: MTT cytotoxicity assay, neurons model; assay type: cell-based; settings: Homo sapiens, 24 h, read-out: IC50, Neurons
[4] = system: A172 cells; test: MTT cytotoxicity assay, astrocytes model; assay type: cell-based; settings: Homo sapiens, A 172, 24 h, read-out: IC50, Astrocytes
[5] = system: bEnd.3 cells; test: MTT cytotoxicity assay, BBB model; assay type: cell-based, murine; settings: Mus musculus, BEND3, 24 h, read-out: IC50, BBB

SMILES: Cc1cn([C@H]2C[C@H](N=[N+]=[N-])[C@@H](CO)O2)c(=O)[nH]c1=O [Z, 3’-azido-3’-deoxythymidine]
- IC50 [1]: 800 mg/L (≈ 2.99 mM)
- reduction in the mtDNA/nuDNA ratio / mitochondrial toxicity [2]: two-fold reduction
- IC50 [3]: > 1000 mg/L
- IC50 [4]: > 1000 mg/L
- IC50 [5]: > 1000 mg/L
